{"source": "patent EP0170180A1", "about": "“Substituted guanidinobenzoic-acid phenyl esters, process for their production and their use as pharmaceutical preparations” (SCHERING AKTIENGESELLSCHAFT, priority 1984, dated 1986)", "key": {"[1]": {"biological_target": "T1, Humanakrosin (Homo sapiens, UniProt P10323)", "T1 construct": "endogenous in cells; host or cells: intact human spermatozoa (Humansperma)", "T1 sequence (P10323 20-421)": "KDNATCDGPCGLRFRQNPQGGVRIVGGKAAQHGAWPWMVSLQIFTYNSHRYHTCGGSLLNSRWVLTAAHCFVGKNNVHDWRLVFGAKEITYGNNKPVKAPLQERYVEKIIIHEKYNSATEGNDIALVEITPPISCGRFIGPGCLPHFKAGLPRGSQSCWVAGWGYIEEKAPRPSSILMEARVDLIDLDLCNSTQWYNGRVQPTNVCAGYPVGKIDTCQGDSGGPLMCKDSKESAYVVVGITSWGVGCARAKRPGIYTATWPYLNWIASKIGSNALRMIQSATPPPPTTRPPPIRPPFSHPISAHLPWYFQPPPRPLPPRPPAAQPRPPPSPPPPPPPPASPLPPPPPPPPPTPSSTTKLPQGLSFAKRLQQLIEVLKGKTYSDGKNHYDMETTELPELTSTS", "assay": "Acrosin (human) assay: inhibition of isolated human acrosin", "format": "biochemical", "conditions": "Substrat: Benzoyl-L-arginyleth.-ester; read-out: I50", "description": "Dieser Test stellt das eigentliche Primärscreening dar. Er gibt einen Anhaltspunkt über die inhibitorische Effektivität einer Verbindung am Enzym (Humanakrosin) selbst, erlaubt aber noch keine Aussage über die biologische Effektivität (d.h. Hemmung von Akrosin im intakten Spermium sowie kontrazeptive Wirksamkeit) der untersuchten Verbindungen.\nDas durch eine saure Extraktion aus Humansperma gewonnene Enzym Akrosin wird mit verschiedenen Konzentrationen des potentiellen Inhibitors inkubiert, und es wird diejenige Konzentration bestimmt, die zu einer 50 %igen Hemmung der Akrosinaktivität führt. Die […] Akrosin spaltet physiologischerweise bevorzugt Arginin- und Lysin-Gruppen. Deshalb wird für die in vitro-Untersuchung zur Aktivitätsbestimmung von Akrosin ein Benzoyl-Arginin-Äthylester als Substrat verwendet."}, "[2]": {"system": "Maussperma", "assay": "In vitro fertilisation (mouse)", "format": "cell-based, Maus", "conditions": "for % Fertilisation: after 24 h; for Anzahl 2-Zellen-Embryos: counted after 24 h", "description": "Dieser Test erlaubt eine erste Überprüfung der kontrazeptiven Effektivität sowie eine Überprüfung des Wirkprinzips per se:\nIn einem Mediumtropfen nach Brinster, Whitten und Whittingham, der den Inhibitor enthält, werden zunächst die durch Superovulation gewonnenen Oocyten überführt. Anschließend wird ein Aliquot des unbehandelten Maussperma hinzupipettiert. Die Konzentrationen des Inhibitors werden so gewählt, daß keine Hemmung der Motilität vorliegt. 24 Stunden später wird die Anzahl der geteilten und nicht geteilten Oocyten und damit die Fertilitätsrate bestimmt.\nEs wird also überprüft, ob der zu untersuchende Akrosininhibitor, appliziert in einem System, in dem es zum unmittelbaren Kontakt zwischen Oocyte und Spermium kommt, eine Fertilisation hemmen kann - ohne daß eine Hemmung der Motilität der Spermien vorliegt."}, "[3]": {"system": "Kaninchen", "assay": "In vivo fertilisation (rabbit) after artificial insemination of preincubated sperm", "conditions": "sperm preincubated with 500 µg/ml, 36 h after insemination; for % geteilt: fertility rate; for geteilt: number of divided oocytes; for nicht geteilt: number of undivided oocytes", "description": "Dieser Test ermöglicht Aussagen zur kontrazeptiven Effektivität unter in-vivo-Bedingungen:\nKaninchensperma, das mit Hilfe einer künstlichen Vagina gewonnen wird, wird mit dem zu untersuchenden Akrosininhibitor präinkubiert. Anschließend werden zur Induktion einer Superovulation mit PMS (pregnant mare serum) vorbehandelte Kaninchenweibchen mit dem vorbehandelten Sperma artifiziell inseminiert. Zur Auslösung der […] erhalten sie abschließend HCG (human chorionic gonadotropin).\n36 Stunden später werden die Tiere getötet, die Ovidukte und Uteri entnommen und gespült, um die frühen Embryonen bzw. ungeteilten Oocyten zu gewinnen und anhand deren Anzahl die Fertilisationsrate zu bestimmen."}, "[4]": {"biological_target": "T1, Humanakrosin", "assay": "Gelatinolysis test: acrosin inhibition in intact human spermatozoa (halo formation, semiquantitative)", "format": "cell-based", "conditions": "Humansperma preincubated with inhibitor", "description": "Dieser Test ist ebenfalls als Bestandteil des Primärscreenings anzusehen. Für die erwünschte kontrazeptive Wirkung eines Akrosininhibitors ist es - neben der eigentlichen Akrosinhemmung am isolierten Enzym - von essentieller Bedeutung, daß ein solcher Inhibitor in der Lage ist, das Plasmalemm und die äußere akrosomale Membran eines intakten Spermiums zu durchdringen, da Akrosin an der inneren akrosomalen Membran lokalisiert ist.\nAls besonders geeignet für die Untersuchung dieser speziellen Fragestellung hat sich das Gelatinolyse-Modell nach P. Gaddum und R.Z. Blandau (Science 170: 749 - 751), modifiziert nach W.B. Schill (Int. J. Andrology 4: 25 - 38) und nach eigenen Ausarbeitungen erwiesen. Bei dieser Methode wird mit unbelichteten, fixierten und mit Methylenblau gefärbten Filmplatten für die Autoradiographie gearbeitet, deren Gelatineschicht durch die lytische Aktivität von Akrosin aufgelöst wird. Als Folge bilden sich um die Spermienköpfe gut sichtbare, weite Höfe (sog. Halo-Bildung/ Lysishof). Bei einer Hemmung von Akrosin unterbleibt die Ausbildung dieser Höfe.\nUm die Penetrierfähigkeit eines erwiesenen Akrosininhibitors und damit die Hemmung von Akrosin am intakten Spermium zu untersuchen, wird Humansperma mit mehreren Konzentrationen des Inhibitors präinkubiert. […]"}}, "note": "Structures can show the parent of a compound that is named as a salt.", "data": [{"smiles": "COC(=O)c1ccccc1OC(=O)c1ccc(NC(=N)N)cc1", "note": "[Verbindung 1, 4-Guanidinobenzoesäure-(2-methoxycarbonylphenyl)-ester Hydrochlorid, reference compound]", "values": [{"measurement": "IC50", "setting": "[1]", "value": 733, "unit": "nM"}, {"measurement": "% Fertilisation", "setting": "[2]; 5 ug/ml", "value": 78, "unit": "%"}, {"measurement": "Anzahl 2-Zellen-Embryos", "setting": "[2]; 5 ug/ml", "value": 195}, {"measurement": "% geteilt", "setting": "[3]", "value": 51, "unit": "%"}, {"measurement": "geteilt", "setting": "[3]", "value": 88}, {"measurement": "nicht geteilt", "setting": "[3]", "value": 83}, {"measurement": "Gelatinolyse: Hemmung der Akrosinaktivität", "setting": "[4]; 1 µg/ml", "value": "++ bis +++"}, {"measurement": "Gelatinolyse: Hemmung der Akrosinaktivität", "setting": "[4]; 10 µg/ml", "value": "+ bis ++"}]}, {"smiles": "N#Cc1ccccc1OC(=O)c1ccc(NC(=N)N)cc1", "note": "[Verbindung 2, 4-Guanidinobenzoesäure-(2-cyanophenyl)-ester Hydrochlorid]", "values": [{"measurement": "IC50", "setting": "[1]", "value": 40, "unit": "nM"}, {"measurement": "% Fertilisation", "setting": "[2]; 5 ug/ml", "value": 59, "unit": "%"}, {"measurement": "Anzahl 2-Zellen-Embryos", "setting": "[2]; 5 ug/ml", "value": 134}, {"measurement": "% Fertilisation", "setting": "[2]; 50 ug/ml", "value": 7, "unit": "%"}, {"measurement": "Anzahl 2-Zellen-Embryos", "setting": "[2]; 50 ug/ml", "value": 22}, {"measurement": "% geteilt", "setting": "[3]", "value": 1, "unit": "%"}, {"measurement": "geteilt", "setting": "[3]", "value": 2}, {"measurement": "nicht geteilt", "setting": "[3]", "value": 158}]}, {"smiles": "CCOC(=O)c1cccc(OC(=O)c2ccc(NC(=N)N)cc2)c1", "note": "[Verbindung 3, 4-Guanidinobenzoesäure-(3-ethoxycarbonylphenyl)-ester Hydrochlorid]", "values": [{"measurement": "IC50", "setting": "[1]", "value": 200, "unit": "nM"}, {"measurement": "% geteilt", "setting": "[3]", "value": 1, "unit": "%"}]}, {"smiles": "COC(=O)c1cccc(OC(=O)c2ccc(NC(=N)N)cc2)c1", "note": "[Verbindung 5, 4-Guanidinobenzoesäure-(3-methoxycarbonylphenyl)-ester Hydrochlorid]", "values": [{"measurement": "IC50", "setting": "[1]", "value": 550, "unit": "nM"}]}, {"smiles": "N=C(N)Nc1ccc(C(=O)Oc2cccc(C(N)=O)c2)cc1", "note": "[Verbindung 6, 4-Guanidinobenzoesäure-(3-carbamoylphenyl)-ester Hydrochlorid]", "values": [{"measurement": "IC50", "setting": "[1]", "value": 320, "unit": "nM"}]}]}
